Source: ChEMBL document CHEMBL3352308, “Identification of constrained peptidomimetic chemotypes as HIV protease inhibitors” (Eur J Med Chem, 2014)

Tests used:
[1] = biological target: Protease (Human immunodeficiency virus 1) (UniProt Q9YQ12); assay: Inhibition of HIV-1 protease using DABCYL-Abu-Ser-Gln-Asn-Tyr-Pro-Ile-Val-Gln-EDANS as substrate preincubated at 10 uM for 15 mins before substrate addition measured over 15 mins by fluorometric assay
[2] = biological target: Protease (Human immunodeficiency virus 1) (UniProt Q9YQ12); assay: Inhibition of HIV-1 protease using DABCYL-Abu-Ser-Gln-Asn-Tyr-Pro-Ile-Val-Gln-EDANS as substrate preincubated at 1 uM for 15 mins before substrate addition measured over 15 mins by fluorometric assay
Protease = Protease (Human immunodeficiency virus 1, UniProt Q9YQ12); assay: Inhibition of HIV-1 protease using DABCYL-Abu-Ser-Gln-Asn-Tyr-Pro-Ile-Val-Gln-EDANS as substrate preincubated for 15 mins before substrate addition measured over 15 mins by fluorometric assay
Chain of Protease (Q9YQ12 whole entry): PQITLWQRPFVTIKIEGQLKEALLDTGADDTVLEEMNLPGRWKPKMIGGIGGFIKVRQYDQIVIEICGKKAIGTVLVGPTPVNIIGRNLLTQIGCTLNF

Chain of Protease (Human immunodeficiency virus 1) (Q9YQ12 as listed by the source): as the sequence (Q9YQ12 whole entry) above

SMILES | inhibition [1] [%] | inhibition [2] [%] | IC50 (Protease) [µM]
CNCCNC(=O)[C@@H]1O[C@@H]2O[C@H]1C(=O)N(Cc1ccccc1)[C@H]2Cc1ccccc1 | 49 | – | –
O=C1[C@@H]2O[C@H](CN1Cc1ccccc1)O[C@H]2C(=O)N1CCC[C@@H]1CO | 77 | – | –
CCCCNC(=O)[C@@H]1O[C@@H]2O[C@H]1C(=O)N(Cc1ccccc1)[C@H]2Cc1ccccc1 | 67 | 33 | 7.5
O=C([C@@H]1O[C@@H]2O[C@H]1C(=O)N(Cc1ccccc1)[C@@H]2Cc1ccccc1)N1CCOCC1 | 17 | – | –
CCCCNC(=O)[C@@H]1O[C@@]2(c3ccccc3)CN(C(c3ccccc3)c3ccccc3)C(=O)[C@@H]1O2 | 66 | – | –
CCCC[C@@H](C(=O)OC)N1C[C@H]2O[C@H](C(=O)N3CCCCC3)[C@H](O2)C1=O | 46 | – | –
O=C(NC1CCCCC1)[C@@H]1O[C@@H]2O[C@H]1C(=O)N(Cc1ccccc1)[C@H]2Cc1ccccc1 | 68 | 69 | 1.9
CCCNC(=O)[C@@H]1O[C@@H]2O[C@H]1C(=O)N(Cc1ccccc1)[C@H]2Cc1ccccc1 | 56 | – | –
O=C(NC1CCCCC1)[C@@H]1O[C@H]2CN(Cc3ccccc3)C(=O)[C@@H]1O2 | 34 | – | –
COC(=O)[C@H](CC(C)C)N1C[C@@H]2O[C@@H](C(=O)N3CCN(Cc4ccccc4)CC3)[C@@H](O2)C1=O | 36 | – | –
CC[C@H](C)[C@@H](C(=O)OC)N1C[C@@H]2O[C@@H](C(=O)N3CCCCC3)[C@@H](O2)C1=O | 30 | – | –
COC(=O)[C@H](CC(C)C)N1C[C@@H]2O[C@@H](C(=O)N3CCN(CCc4ccccc4)CC3)[C@@H](O2)C1=O | 70 | – | –
O=C(NCCc1ccccc1)[C@@H]1O[C@H]2CN(Cc3ccccc3)C(=O)[C@@H]1O2 | 31 | – | –
O=C([C@@H]1O[C@@H]2O[C@H]1C(=O)N(Cc1ccccc1)[C@H]2Cc1ccccc1)N1CCN(CCO)CC1 | 75 | 45 | 5.6
C[C@@H](CO)NC(=O)[C@@H]1O[C@H]2CN(Cc3ccccc3)C(=O)[C@@H]1O2 | 90 | 54 | 1.5
CC(C)CCNC(=O)[C@@H]1O[C@@H]2O[C@H]1C(=O)N(Cc1ccccc1)[C@H]2Cc1ccccc1 | 75 | – | –
O=C([C@H]1O[C@@H]2CN(Cc3ccccc3)C(=O)[C@H]1O2)N1CCN(CCO)CC1 | 47 | – | –

SMILES | inhibition [1] [%] | inhibition [2] [%] | IC50 (Protease) [µM]
CCCC[C@@H](C(=O)OC)N1C[C@@H]2O[C@@H](C(=O)N3CCCCC3)[C@@H](O2)C1=O | 43 | – | –
O=C([C@@H]1O[C@@H]2O[C@H]1C(=O)N(Cc1ccccc1)[C@@H]2Cc1ccccc1)N1CCC[C@H]1CO | 58 | – | –
CC(C)CC(=O)N[C@H](C(=O)N[C@H](C(=O)N[C@@H](CC(C)C)[C@@H](O)CC(=O)N[C@@H](C)C(=O)N[C@@H](CC(C)C)[C@@H](O)CC(=O)O)C(C)C)C(C)C | 74 | 56 | –
CC(C)C[C@H](C(=O)O)N1C[C@@H]2O[C@@H](C(=O)N3CCCCC3)[C@@H](O2)C1=O | 43 | – | –
C#CCNC(=O)[C@@H]1O[C@@H]2O[C@H]1C(=O)N(Cc1ccccc1)[C@H]2Cc1ccccc1 | 78 | 60 | 0.7
COC(=O)[C@H](CC(C)C)N1C[C@@H]2O[C@@H](C(=O)N[C@H](CO)CC(C)C)[C@@H](O2)C1=O | 57 | – | –
CC(C)C[C@@H](CO)NC(=O)[C@@H]1O[C@H]2CN(Cc3ccccc3)C(=O)[C@@H]1O2 | 82 | 55 | 2.6
O=C([C@@H]1O[C@@]2(c3ccccc3)CN(C(c3ccccc3)c3ccccc3)C(=O)[C@@H]1O2)N1CCN(CCO)CC1 | 71 | – | –
CCOC(=O)N1CCN(C(=O)[C@@H]2O[C@H]3CN(Cc4ccccc4)C(=O)[C@@H]2O3)CC1 | 57 | – | –
CNCCNC(=O)[C@@H]1O[C@@]2(c3ccccc3)CN(C(c3ccccc3)c3ccccc3)C(=O)[C@@H]1O2 | 33 | – | –
O=C([C@@H]1O[C@@H]2O[C@H]1C(=O)N(Cc1ccccc1)[C@@H]2Cc1ccccc1)N1CCCCC1 | 59 | – | –
CC(C)C[C@@H](CO)NC(=O)[C@@H]1O[C@@H]2O[C@H]1C(=O)N(Cc1ccccc1)[C@@H]2Cc1ccccc1 | 80 | – | –
CC(C)C[C@@H](C(=O)O)N1C[C@@H]2O[C@@H](C(=O)N3CCCCC3)[C@@H](O2)C1=O | 63 | – | –
O=C(NCCCO)[C@@H]1O[C@H]2CN(Cc3ccccc3)C(=O)[C@@H]1O2 | 47 | – | –
C[C@@H](CO)NC(=O)[C@@H]1O[C@@H]2O[C@H]1C(=O)N(Cc1ccccc1)[C@@H]2Cc1ccccc1 | 81 | – | –
O=C([C@@H]1O[C@H]2CN(Cc3ccccc3)C(=O)[C@@H]1O2)N1CCCCC1 | 21 | – | –
